Assay [1] has as its system E. coli. Nature of the assay: MIC by SIR from flow cytometer measurement. Format: cell-based. The conditions noted are these: SIR vs antibiotic concentration. As to the method: The MIC is calculated by plotting the spectral intensity ratio (SIR) as a function of the antimicrobial concentration and approximating it to a step function in the form of
Where a, b, and c are parameters and erf is the error function. The parameters are used to approximate the measured SIR to a step function; a is a scaling parameter, b determines the step slope, and c is the MIC value, or a function of it. The SIR values are used to determine the erf parameters by a best fit approximation.
We measured E. coli exposed to gentamicin at 4 concentration. The MIC was calculated using the spectral intensity ratio (SIR) calculation and step function estimation using MATLAB software.
FIG. 3 provides plots showing the SIR as a function of the antibiotic concentration for the InCell measurement (top) and flow cytometer measurement (bottom). As can been seen from the graphs, their shapes are similar, although the InCell measurement has less data points, and the MIC is 0.5 μg/ml in both cases. Live bacteria population (0 μg/ml) have lower SIR then the dead ones (>0.5 μg/ml). At the MIC (0.5 ug/ml) there is a large increase in the SIR. […] The SIR then decreases at very high (>4 ug/ml) antibiotic concentrations.
(Flow cytometry measures light scatter and fluorescence of single cells or particles in a stream.)

Assay [2] has as its system E. coli. Nature of the assay: Rapid AST/MIC by membrane fluorescence staining, SIR from IN Cell confocal imaging. The assay is classed as cell-based. The conditions noted are these: InCell measurement; SIR (610 nm/530 nm) vs antibiotic concentration, step function fit; 2-4 hours antibiotic exposure at 37° C.; Synaptogreen/FM 1-43 dye. As to the method:
In general, the method includes blood culture centrifugation, bacterial antimicrobial exposure for 2 to 4 hours, bacteria staining with a single fluorescence dye followed by laser confocal microscopy, and mathematical analysis.
Sample Preparation—Macro Dilution Method • a) Antimicrobial (Gentamicin) stock solutions were prepared according to CLSI recommendations, and were diluted in CAMHB, to a concentration which was 2 fold higher from the highest concentration recommended for each antimicrobial combination (“Class II Special Controls Guidance Document: Antimicrobial Susceptibility Test (AST) Systems”, Aug. […] The images were taken through a green filter (530 nm) and red filter (615 nm) one after the other for each image. • i) images were analyzed using GE In Cell Investigator image analysis software. For each image the following operation were performed; segmentation for identifying the bacteria, for each bacteria the intensity in the green and […] were recorded, and a scatter plot of the bacteria population was plotted (x axis—intensity in the green, y axis—intensity in the red).
To quantify the influence of a certain antimicrobial exposure we define the spectral intensity ratio (SIR) as follows: […]
The MIC is calculated by plotting the spectral intensity ratio (SIR) as a function of the antimicrobial concentration and approximating it to a step function in the form of […]

With gentamicin, the minimum inhibitory concentration (MIC) against E. coli [1] and with E. coli [2] was 0.5 µg/mL each time.

Values taken from patent US20200393377A1, “Microscopy for Rapid Antibiotic Susceptibility Test Using Membrane Fluorescence Staining and Spectral Intensity Ratio” (POCARED Diagnostics LTD., priority 2019, published 2020).
